According to patent US7183260B2, “C-terminal modified oxamyl dipeptides as inhibitors of the ICE/ced-3 family of cysteine proteases” (Idun Pharmaceuticals, Inc., priority 1998, dated 2007):

What was measured:
Type in all cases: biochemical
Conditions in all cases: continuous assay 60 min, reaction initiated by adding enzyme to substrate-inhibitor mixture
[1] = target: T1, MCH-2 (Homo sapiens, UniProt P55212); assay: Dissociation constant Ki and irreversible rate constant k3 for irreversible inhibitors (Mch2)
T1 sequence (P55212 24-179 limits assumed): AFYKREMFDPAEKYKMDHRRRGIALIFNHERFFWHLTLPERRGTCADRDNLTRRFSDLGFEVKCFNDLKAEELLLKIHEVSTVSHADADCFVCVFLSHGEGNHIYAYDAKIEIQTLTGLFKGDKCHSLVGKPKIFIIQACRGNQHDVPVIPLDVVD
T1 sequence (P55212 194-293 limits assumed): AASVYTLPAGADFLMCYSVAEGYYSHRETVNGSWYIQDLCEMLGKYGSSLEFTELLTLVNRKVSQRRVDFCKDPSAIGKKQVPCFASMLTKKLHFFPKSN

[2] = target: T2, mICE (Mus musculus, UniProt P29452); assay: Dissociation constant Ki and irreversible rate constant k3 for irreversible inhibitors (ICE)
T2 sequence (P29452 123-296 limits assumed): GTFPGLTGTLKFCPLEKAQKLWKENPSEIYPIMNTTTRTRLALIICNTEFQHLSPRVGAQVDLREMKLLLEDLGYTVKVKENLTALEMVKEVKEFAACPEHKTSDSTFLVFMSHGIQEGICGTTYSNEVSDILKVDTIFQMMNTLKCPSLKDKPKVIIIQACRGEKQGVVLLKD
T2 sequence (P29452 315-402 limits assumed): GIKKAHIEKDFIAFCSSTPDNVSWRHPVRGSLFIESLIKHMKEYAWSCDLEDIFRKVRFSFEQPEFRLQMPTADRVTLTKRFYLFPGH

[3] = target: T3, CPP32 (Homo sapiens, UniProt P42574); assay: Dissociation constant Ki and irreversible rate constant k3 for irreversible inhibitors (CPP32)
T3 sequence (P42574 29-175 limits assumed): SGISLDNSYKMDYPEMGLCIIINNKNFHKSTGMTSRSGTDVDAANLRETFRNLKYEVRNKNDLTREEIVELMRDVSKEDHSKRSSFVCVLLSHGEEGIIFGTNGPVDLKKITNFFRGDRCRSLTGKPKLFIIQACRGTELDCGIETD
T3 sequence (P42574 176-277 limits assumed): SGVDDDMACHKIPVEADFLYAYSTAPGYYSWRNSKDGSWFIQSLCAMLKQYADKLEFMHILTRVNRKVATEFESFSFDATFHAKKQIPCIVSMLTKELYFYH

[4] = target: MCH-5 (Homo sapiens, UniProt Q14790); assay: Dissociation constant Ki and irreversible rate constant k3 for irreversible inhibitors (Mch5)
Chain of MCH-5 (Q14790 217-374 limits assumed, species assumed): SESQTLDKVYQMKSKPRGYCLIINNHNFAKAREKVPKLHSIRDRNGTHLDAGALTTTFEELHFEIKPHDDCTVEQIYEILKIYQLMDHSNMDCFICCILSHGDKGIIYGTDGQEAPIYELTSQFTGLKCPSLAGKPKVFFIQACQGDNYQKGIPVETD
Chain of MCH-5 (Q14790 385-479 limits assumed, species assumed): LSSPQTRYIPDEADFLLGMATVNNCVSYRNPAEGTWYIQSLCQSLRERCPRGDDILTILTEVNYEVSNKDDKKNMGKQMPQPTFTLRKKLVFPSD

Row | Structure (SMILES) | Ki [1] | MCH-2 k3/Ki [1] | Ki [2] | mICE k3/Ki [2] | CPP32 k3/Ki [3] | Ki [3] | Ki [4] | MCH-5 k3/Ki [4]
1 | C[C@H](NC(=O)C(=O)Nc1cc(C(C)(C)C)ccc1C(C)(C)C)C(=O)N[C@@H](CC(=O)O)C(=O)COP(=O)(c1ccccc1)c1ccccc1 [Example 59] | 15 nM | 308,000 moles^−1 seconds^−1 | 45 nM | 211,000 moles^−1 seconds^−1 | 104,000 moles^−1 seconds^−1 | 71 nM | 5.5 nM | 1,340,000 moles^−1 seconds^−1
2 | C[C@H](NC(=O)C(=O)Nc1cc(C(C)(C)C)ccc1C(C)(C)C)C(=O)N[C@@H](CC(=O)O)C(=O)COC(=O)c1c(Cl)cccc1Cl [Example 60] | 49 nM | 146,000 moles^−1 seconds^−1 | 26 nM | 289,000 moles^−1 seconds^−1 | 189,000 moles^−1 seconds^−1 | 58 nM | 14 nM | 306,000 moles^−1 seconds^−1
3 | C[C@H](NC(=O)C(=O)Nc1cccc2c1CCCC2)C(=O)N[C@@H](CC(=O)O)C(=O)COP(=O)(c1ccccc1)c1ccccc1 [Example 61] | 19 nM | 120,000 moles^−1 seconds^−1 | 23 nM | 315,000 moles^−1 seconds^−1 | 157,000 moles^−1 seconds^−1 | 69 nM | 38 nM | 71,800 moles^−1 seconds^−1
4 | C[C@H](NC(=O)C(=O)Nc1cccc2c1CCCC2)C(=O)N[C@@H](CC(=O)O)C(=O)COC(=O)c1c(Cl)cccc1Cl [Example 62] | 23 nM | 126,000 moles^−1 seconds^−1 | 1020 nM | 16,900 moles^−1 seconds^−1 | 149,000 moles^−1 seconds^−1 | 101 nM | 90 nM | 21,200 moles^−1 seconds^−1
5 | C[C@H](NC(=O)C(=O)Nc1ccccc1F)C(=O)N[C@@H](CC(=O)O)C(=O)COc1c(F)c(F)cc(F)c1F [Example 66] | 19 nM | 212,000 moles^−1 seconds^−1 | 25 nM | 339,000 moles^−1 seconds^−1 | 478,000 moles^−1 seconds^−1 | 28 nM | 13 nM | 170,000 moles^−1 seconds^−1
6 | C[C@H](NC(=O)C(=O)NCCc1ccccc1)C(=O)N[C@@H](CC(=O)O)C(=O)COP(=O)(c1ccccc1)c1ccccc1 [Example 72] | 26 nM | 131,000 moles^−1 seconds^−1 | 12 nM | 1,230,000 moles^−1 seconds^−1 | 169,000 moles^−1 seconds^−1 | 94 nM | 8.1 nM | 667,000 moles^−1 seconds^−1
7 | C[C@H](NC(=O)C(=O)Nc1ccccc1I)C(=O)N[C@@H](CC(=O)O)C(=O)COP(=O)(c1ccccc1)c1ccccc1 [Example 74] | 78 nM | 66,200 moles^−1 seconds^−1 | 303 nM | 36,300 moles^−1 seconds^−1 | 78,300 moles^−1 seconds^−1 | 161 nM | 70 nM | 46,300 moles^−1 seconds^−1
8 | C[C@H](NC(=O)C(=O)Nc1ccccc1I)C(=O)N[C@@H](CC(=O)O)C(=O)COC(=O)c1c(Cl)cccc1Cl [Example 75] | 34 nM | 28,200 moles^−1 seconds^−1 | 13 nM | 1,270,000 moles^−1 seconds^−1 | 67,600 moles^−1 seconds^−1 | 105 nM | 4 nM | 551,000 moles^−1 seconds^−1
9 | C[C@H](NC(=O)C(=O)Nc1ccccc1C(C)(C)C)C(=O)N[C@@H](CC(=O)O)C(=O)COC(=O)c1c(Cl)cccc1Cl [Example 76] | 235 nM | 6,960 moles^−1 seconds^−1 | 19 nM | 537,000 moles^−1 seconds^−1 | 62,900 moles^−1 seconds^−1 | 85 nM | 22 nM | 30,200 moles^−1 seconds^−1
